Results from patent publication US6228373A, “Peptides with immunomodulatory effects” (priority 1995, dated 2001).
Positions of bridges follow the written chain, without caps; N, C: chain ends. Residues, ends and D or L forms follow the SMILES beside them. Chains are numbered I, II in the order given.

Columns and labels:
[1] = system: mice (DTH test as per Example 43); assay: DTH test, comparison of different routes of administration; format: in vivo
Experimental: The mice were sensitized, Day 0, by epicutaneous application of 150 μl of an absolute ethanol-acetone (3:1) solution containing 3% OXA on the shaved abdomen. Treatment with peptides 1 to 41 inclusive, or vehicle (phosphate buffer, pH 7.4, containing a mixture of Buffer A and Buffer B in the proportion 63%:37% B (Buffer A: Na2 HPO4, 0.89 g/100 ml, EDTA 0.05 g/100 ml; Buffer B: NaH2 PO4, 0.69 g/100 ml, EDTA 0.05 g/100 ml) was initiated by oral feeding immediately after sensitization and continued once daily (a.m) until Day 6. Seven days after sensitization, both ears of all mice were challenged on both sides by topical application of 20 μl 1% OXA dissolved in peanut oil. Ear thickness was measured prior to and at 24 hours or 48 hours after challenge using an Oditest spring calliper. Challenges and measurements were performed under light pentobarbital anaesthesia.
The intensity of the DTH reactions was measured according to the method described by van Loveren H., et al. (1984) J. Immunol. Methods 67: 311 and expressed according to the formula: Tt24/48 -Tt0 μm units, where t0, t24 and t48 represent the ear thickness at time 0, +24 hrs or +48 hrs after challenge respectively, in individual tests (T). The results are expressed as the mean +/- S.E.M.. The level of significance between means of the groups is obtained by Student's two-tailed t-test. […]
Peptide (Peptide No. 4-derived from SEQ ID NO:24) was administered to mice (groups of 10) orally and by parenteral injection (intravenous and subcutaneous injection) at doses of from 0.0003 μmol/kg body weight through to 3.0 μmol/kg body weight as per example 43. […] The mean and standard error of the mean for each group of mice (10 per group) was recorded.
Peptide (SEQ ID NO:24, dimerized as shown in Box 36 of Table 1) was administered to mice (groups of 10) at doses of 0.03 μmol/kg body weight and 3.0 μmol/kg body weight. […] The mean and standard error of the mean for each group of mice (10 per group) was calculated.

[2] = system: rat spontaneously developed mammary carcinoma cells; assay: Effects of peptides on tumour growth; format: in vivo; conditions: Wistar rats, subcutaneous mammary carcinoma, gavage once a day, all dose levels tested
Experimental: 10^4 rat spontaneously developed mammary carcinoma cells in isotonic saline and 5% normal syngeneic rat serum were inoculated subcutaneously in the right hindlegs of Wistar rats (8 per group). Tumour size was estimated by palpation and caliper measurements of a first diameter (a), being the largest diameter, and the one (b) perpendicular to the first. The volume of the tumour was calculated using the formula: V=0.4 ab^2.
Tumour volume is given in mm^3 as a median for each group of rats (8 per group).
Drug and control (isotonic saline) were administered by gavage (oesophagealtube) once a day (a.m.) on each of days 4-8 and 11-15 for peptides
i) Gly-Pro-Cys-Cys-Pro-Gly (SEQ ID NO:20; 3 μmol/kg/day); ii) Ala-Pro-Cys-Cys-Val-Pro (SEQ ID NO:21; 0.03 and […]);

[3] = 0.03 and 3.0 μmol/kg body weight

Structure (SMILES): O=C(CNC(=O)[C@@H]1CCCN1)N[C@H]1CSSC[C@H](NC(=O)CNC(=O)[C@@H]2CCCN2)C(=O)N[C@H](C(=O)NCC(=O)N2CCC[C@H]2C(=O)O)CSSC[C@@H](C(=O)NCC(=O)N2CCC[C@H]2C(=O)O)NC1=O [Peptide 36] (I: H-PGCCGP-OH / II: H-PGCCGP-OH; disulfide I:3-II:3, I:4-II:4)
- immunomodulatory effect in the DTH test relative to the control [1, 3]: significant immunomodulatory effect
- reaction by oral route relative to parenteral routes at the same dosage [1, 3]: stronger reaction

Structure (SMILES): O=C(CNC(=O)[C@@H]1CCCN1)N[C@H]1CSSC[C@@H](C(=O)NCC(=O)N2CCC[C@H]2C(=O)O)NC1=O [Peptide 4] (H-PGCCGP-OH; disulfide 3-4)
- immunomodulatory response, oral administration versus other parenteral means ([1]; 0.0003 to 3.0 μmol/kg body weight, oral vs intravenous and subcutaneous injection): more marked immunomodulatory response

Structure (SMILES): NCC(=O)N1CCC[C@H]1C(=O)N[C@@H](CS)C(=O)N[C@@H](CS)C(=O)N1CCC[C@H]1C(=O)NCC(=O)O [Peptide 1, Gly-Pro-Cys-Cys-Pro-Gly] (H-GPCCPG-OH)
- tumour volume compared with the control [2]: marked decrease in tumour volume

Structure (SMILES): CC[C@H](C)[C@H](NC(=O)[C@@H](N)C(C)C)C(=O)N[C@H]1CSSC[C@@H](C(=O)N[C@@H](CC(C)C)C(=O)N[C@H](C(=O)O)[C@@H](C)O)NC1=O [SEQ ID NO:26] (H-VICCLT-OH; disulfide 3-4)
- tumour volume compared with the control [2]: marked decrease in tumour volume
